Laboratory results taken from PubChem BioAssay AID248 (DTP/NCI, 2004).
Inconclusive results and toxic doses are left out. Rule as the data show it: active = T/C of 150% or more; inactive = T/C below 125%.

Tested on: L1210 leukemia ip in BDF1 mice, survival T/C
Assay: NCI In Vivo Anticancer Drug Screen. Data for tumor model L1210 Leukemia (intraperitoneal) in B6D2F1 (BDF1) mice
Settings: endpoint: mean survival time, higher = longer survival
In short: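 In this screen, tumor-bearing mice given compound are compared to those given vehicle, and their survival values are reported as a treated-to-control quotient.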

[1] = dose: 100.0 mg/kg/injection, schedule: Q01DX001 (ip), vehicle: saline
[2] = dose: 200.0 mg/kg/injection, schedule: Q01DX001 (ip), vehicle: saline
[3] = dose: 100.0 mg/kg/injection, schedule: Q04DX003 (ip), vehicle: saline with Tween-80
[4] = dose: 200.0 mg/kg/injection, schedule: Q04DX003 (ip), vehicle: saline with Tween-80
[5] = dose: 400.0 mg/kg/injection, schedule: Q04DX003 (ip), vehicle: saline with Tween-80
[6] = dose: 100.0 mg/kg/injection, schedule: Q04DX002 (ip), vehicle: saline

Measured: T/C

N#[N+]c1ccc2[nH]c3ccccc3c(=O)c2c1
inactive: dose: 5.0 mg/kg/injection, schedule: Q01DX009 (ip), vehicle: saline 105 % of control | dose: 10.0 mg/kg/injection, schedule: Q01DX001 (ip), vehicle: saline 101 % of control | dose: 10.0 mg/kg/injection, schedule: Q01DX009 (ip), vehicle: saline 102 % of control | dose: 10.0 mg/kg/injection, schedule: Q04DX003 (ip), vehicle: saline 94 % of control | dose: 20.0 mg/kg/injection, schedule: Q01DX001 (ip), vehicle: saline 101 % of control | dose: 20.0 mg/kg/injection, schedule: Q01DX009 (ip), vehicle: saline 94 % of control | dose: 20.0 mg/kg/injection, schedule: Q04DX003 (ip), vehicle: saline 97 % of control | dose: 40.0 mg/kg/injection, schedule: Q01DX001 (ip), vehicle: saline 104 % of control | dose: 40.0 mg/kg/injection, schedule: Q04DX003 (ip), vehicle: saline 97 % of control

C[C@]12CC[C@H](O)CC1=CC[C@@H]1[C@@H]2CC[C@]2(C)c3nc4ccccc4cc3C[C@@H]12
inactive: dose: 15.6 mg/kg/injection, schedule: Q01DX Z (sc), vehicle: steriod suspending solution 94 % of control | dose: 31.3 mg/kg/injection, schedule: Q01DX Z (sc), vehicle: steriod suspending solution 93 % of control | dose: 62.5 mg/kg/injection, schedule: Q01DX Z (sc), vehicle: steriod suspending solution 94 % of control | dose: 100.0 mg/kg/injection, schedule: Q01DX009 (sc), vehicle: steriod suspending solution 94 % of control | dose: 100.0 mg/kg/injection, schedule: Q04DX003 (ip), vehicle: steriod suspending solution 98 % of control | dose: 125.0 mg/kg/injection, schedule: Q01DX Z (sc), vehicle: steriod suspending solution 96 % of control | dose: 200.0 mg/kg/injection, schedule: Q01DX009 (sc), vehicle: steriod suspending solution 92 % of control | dose: 200.0 mg/kg/injection, schedule: Q04DX003 (ip), vehicle: steriod suspending solution 107 % of control | dose: 250.0 mg/kg/injection, schedule: Q01DX Z (sc), vehicle: steriod suspending solution 104 % of control | dose: 400.0 mg/kg/injection, schedule: Q01DX009 (sc), vehicle: steriod suspending solution 89 % of control | dose: 400.0 mg/kg/injection, schedule: Q04DX003 (ip), vehicle: steriod suspending solution 106 % of control | dose: 500.0 mg/kg/injection, schedule: Q01DX Z (sc), vehicle: steriod suspending solution 94 % of control

CC(C)OC(=O)NCc1cccs1
inactive: dose: 100.0 mg/kg/injection, schedule: Q01DX009 (ip), vehicle: carboxymethylcellulose (CMC) 104 % of control | dose: 200.0 mg/kg/injection, schedule: Q01DX009 (ip), vehicle: carboxymethylcellulose (CMC) 101 % of control | dose: 400.0 mg/kg/injection, schedule: Q01DX009 (ip), vehicle: carboxymethylcellulose (CMC) 104 % of control

O=C(O)c1cc(N2C(=O)C=CC2=O)cc(N2C(=O)C=CC2=O)c1
inactive: dose: 11.1 mg/kg/injection, schedule: Q01DX Z (ip), vehicle: methylcellulose (MC) 102 % of control | dose: 16.6 mg/kg/injection, schedule: Q01DX Z (ip), vehicle: methylcellulose (MC) 102 % of control | dose: 25.0 mg/kg/injection, schedule: Q01DX Z (ip), vehicle: methylcellulose (MC) 94 % of control

CC(=O)Nc1cncc2ccccc12
inactive: dose: 100.0 mg/kg/injection, schedule: Q01DX009 (ip), vehicle: other 104 % of control | dose: 100.0 mg/kg/injection, schedule: Q04DX002 (ip), vehicle: other 97 % of control | dose: 200.0 mg/kg/injection, schedule: Q01DX009 (ip), vehicle: other 101 % of control | dose: 200.0 mg/kg/injection, schedule: Q04DX002 (ip), vehicle: other 105 % of control | dose: 400.0 mg/kg/injection, schedule: Q01DX009 (ip), vehicle: other 106 % of control | dose: 400.0 mg/kg/injection, schedule: Q04DX002 (ip), vehicle: other 105 % of control

O=C(O)CCCCOc1ccccc1
inactive: dose: 75.0 mg/kg/injection, schedule: Q04DX003 (ip), vehicle: saline 97 % of control | dose: 150.0 mg/kg/injection, schedule: Q04DX003 (ip), vehicle: saline 103 % of control

O=C(O)CC(O)C(Cl)(Cl)Cl (configuration not stated)
inactive: [1] 93 % of control | [2] 104 % of control | dose: 400.0 mg/kg/injection, schedule: Q01DX001 (ip), vehicle: saline 98 % of control

CCC(SC(CC)C(=O)O)C(=O)O (configuration not stated)
inactive: [1] 98 % of control | [2] 94 % of control

CCOP(=O)(Nc1ccc2c(c1)C(=O)c1ccccc1-2)OCC
inactive: dose: 50.0 mg/kg/injection, schedule: Q01DX001 (ip), vehicle: carboxymethylcellulose (CMC) 97 % of control | dose: 100.0 mg/kg/injection, schedule: Q01DX001 (ip), vehicle: carboxymethylcellulose (CMC) 103 % of control | dose: 200.0 mg/kg/injection, schedule: Q01DX001 (ip), vehicle: carboxymethylcellulose (CMC) 100 % of control | dose: 400.0 mg/kg/injection, schedule: Q01DX001 (ip), vehicle: carboxymethylcellulose (CMC) 103 % of control

NC(=O)NC1CCCCCC1
inactive: [3] 94 % of control | [4] 91 % of control | [5] 91 % of control

Cc1c(Cl)cccc1NC(=O)c1ccccc1C(=O)O
inactive: dose: 100.0 mg/kg/injection, schedule: Q01DX009 (ip), vehicle: Klucel (hydroxypropylcellulose) (HPC) 98 % of control | dose: 100.0 mg/kg/injection, schedule: Q04DX003 (ip), vehicle: Klucel (hydroxypropylcellulose) (HPC) 96 % of control | dose: 200.0 mg/kg/injection, schedule: Q01DX009 (ip), vehicle: Klucel (hydroxypropylcellulose) (HPC) 104 % of control | dose: 200.0 mg/kg/injection, schedule: Q04DX003 (ip), vehicle: Klucel (hydroxypropylcellulose) (HPC) 100 % of control | dose: 400.0 mg/kg/injection, schedule: Q01DX009 (ip), vehicle: Klucel (hydroxypropylcellulose) (HPC) 102 % of control | dose: 400.0 mg/kg/injection, schedule: Q04DX003 (ip), vehicle: Klucel (hydroxypropylcellulose) (HPC) 102 % of control

COc1ccc2nc3cc(Cl)ccc3c(NC(C)CCCN(CCCl)CCCl)c2c1 (configuration not stated)
inactive: dose: 0.25 mg/kg/injection, schedule: Q01DX009 (ip), vehicle: saline 108 % of control | dose: 0.25 mg/kg/injection, schedule: Q04DX003 (ip), vehicle: saline 115 % of control | dose: 0.5 mg/kg/injection, schedule: Q01DX009 (ip), vehicle: saline 117 % of control | dose: 0.5 mg/kg/injection, schedule: Q04DX003 (ip), vehicle: saline 100 % of control | dose: 1.0 mg/kg/injection, schedule: Q01DX009 (ip), vehicle: saline 104 % of control | dose: 1.0 mg/kg/injection, schedule: Q04DX003 (ip), vehicle: saline 109 % of control | dose: 2.0 mg/kg/injection, schedule: Q04DX003 (ip), vehicle: saline 116 % of control

CCOc1nc(SCC)ncc1C
inactive: dose: 100.0 mg/kg/injection, schedule: Q01DX009 (ip), vehicle: water 107 % of control | dose: 100.0 mg/kg/injection, schedule: Q04DX003 (ip), vehicle: water 101 % of control | dose: 200.0 mg/kg/injection, schedule: Q01DX009 (ip), vehicle: water 106 % of control | dose: 200.0 mg/kg/injection, schedule: Q04DX003 (ip), vehicle: water 95 % of control | dose: 400.0 mg/kg/injection, schedule: Q04DX003 (ip), vehicle: water 103 % of control

OC(CCl)COCC#Cc1ccccc1 (configuration not stated)
inactive: dose: 100.0 mg/kg/injection, schedule: Q01DX009 (ip), vehicle: saline sonified 93 % of control | dose: 100.0 mg/kg/injection, schedule: Q04DX003 (ip), vehicle: saline sonified 101 % of control | dose: 200.0 mg/kg/injection, schedule: Q01DX009 (ip), vehicle: saline sonified 96 % of control | dose: 200.0 mg/kg/injection, schedule: Q04DX003 (ip), vehicle: saline sonified 93 % of control | dose: 400.0 mg/kg/injection, schedule: Q01DX009 (ip), vehicle: saline sonified 93 % of control | dose: 400.0 mg/kg/injection, schedule: Q04DX003 (ip), vehicle: saline sonified 92 % of control

O=C(COc1ccc(Cl)c(Cl)c1)NCc1ccc[n+](Cc2ccc([N+](=O)[O-])cc2)c1
inactive: [3] 89 % of control | [4] 91 % of control | [5] 88 % of control

CSC12OCC(O1)C1OC(C)(C)OC(C=O)C1O2 (configuration not stated)
inactive: dose: 50.0 mg/kg/injection, schedule: Q04DX002 (ip), vehicle: saline 92 % of control | [6] 95 % of control

c1ccc(-c2cnc(-c3ccccc3)[nH]2)cc1
inactive: [3] 97 % of control | [4] 100 % of control | [5] 100 % of control

CCCCOCCOCCOC(C)Oc1ccc(C(=O)OC)cc1 (configuration not stated)
inactive: [6] 92 % of control | dose: 200.0 mg/kg/injection, schedule: Q04DX002 (ip), vehicle: saline 99 % of control | dose: 400.0 mg/kg/injection, schedule: Q04DX002 (ip), vehicle: saline 101 % of control
